Our source for the melting point values is patent publication US6962933B1, “Method for inhibiting p38 MAP kinase or TNF-α production using a 1,3-thiazole” (Takeda Pharmaceutical Company Limited, priority 1999, dated 2005).

What is called melting point is the temperature of the solid-liquid transition.

Consider `CNc1nc(-c2ccc3c(c2)CCC3)c(-c2cccnc2)s1` [13-74], for which the melting point fell in the range of 172 to 173 °C. Next, `COc1ccc(-c2nc(N)sc2-c2ccncc2)cc1` [Reference Example 13-14, [4-(4-methoxyphenyl)-5-(4-pyridyl)-1,3-thiazol-2-yl]amine]: 282 to 284 °C; `Nc1nc(-c2ccccc2)c(-c2ccncc2)s1` [Reference Example 13-15, [4-phenyl-5-(4-pyridyl)-1,3-thiazol-2-yl]amine]: 248 to 250 °C. The compound `CNc1nc(-c2ccccc2)c(-c2ccncc2)s1` [Reference Example 13-47, N-methyl [4-phenyl-5-(4-pyridyl)-1,3-thiazol-2-yl]amine] registered a melting point of 191 to 192 °C. `CNc1nc(-c2ccc(F)cc2)c(-c2ccncc2)s1` [Reference Example 13-69, N-methyl [4-(4-fluorophenyl)-5-(4-pyridyl)-1,3-thiazol-2-yl]amine] yielded a melting point of 205 to 206 °C. Next, `CNc1nc(-c2ccc(Br)cc2)c(-c2ccncc2)s1` [Reference Example 13-71, N-methyl [4-(4-bromophenyl)-5-(4-pyridyl)-1,3-thiazol-2-yl]amine]: 206 to 207 °C; `O=C(Cc1ccccc1)Nc1nc(-c2ccccc2)c(-c2ccncc2)s1` [Reference Example 23-29, 2-phenyl-N-[4-phenyl-5-(4-pyridyl)-1,3-thiazol-2-yl]acetamide]: 233 to 234 °C. Next, `O=C(CCc1ccccc1)Nc1nc(-c2ccccc2)c(-c2ccncc2)s1` [Reference Example 23-30, 3-phenyl-N-[4-phenyl-5-(4-pyridyl)-1,3-thiazol-2-yl]propionamide]: 214 to 216 °C. Next, `CC(=O)Nc1nc(-c2cccc(Cl)c2)c(-c2ccncc2)s1` [Reference Example 23-49, N-[4-(3-chlorophenyl)-5-(4-pyridyl)-1,3-thiazol-2-yl]acetamide]: 290 to 293 °C; `CCC(=O)Nc1nc(-c2cccc(Cl)c2)c(-c2ccncc2)s1` [Reference Example 23-50, N-[4-(3-chlorophenyl)-5-(4-pyridyl)-1,3-thiazol-2-yl]propionamide]: 289 to 290 °C; `CC(=O)Nc1nc(-c2cccc(C)c2)c(-c2ccncc2)s1` [Reference Example 23-51, N-[4-(3-methylphenyl)-5-(4-pyridyl)-1,3-thiazol-2-yl]acetamide]: 287 to 289 °C. Take `CCC(=O)Nc1nc(-c2cccc(C)c2)c(-c2ccncc2)s1` [Reference Example 23-52, N-[4-(3-methylphenyl)-5-(4-pyridyl)-1,3-thiazol-2-yl]propionamide]: the melting point lay in the range of 258 to 260 °C.

Compound `Nc1nc(-c2cccc(Cl)c2)c(-c2ccncc2)s1` [Reference Example 23-59, [4-(3-chlorophenyl)-5-(4-pyridyl)-1,3-thiazol-2-yl]amine] had a melting point of 256 to 258 °C. In the case of `Nc1nc(-c2ccc(Cl)cc2)c(-c2ccncc2)s1` [Reference Example 23-61, [4-(4-chlorophenyl)-5-(4-pyridyl)-1,3-thiazol-2-yl]amine], the melting point is above 300 °C. With `Cc1ccc(-c2nc(N)sc2-c2ccncc2)cc1` [Reference Example 23-62, [4-(4-methylphenyl)-5-(4-pyridyl)-1,3-thiazol-2-yl]amine], the melting point is 296 to 298 °C.

In turn, `CC(=O)Nc1nc(-c2ccccc2)c(-c2ccncc2)s1` [Reference Example 23-71, N-[4-phenyl-5-(4-pyridyl)-1,3-thiazol-2-yl]acetamide] gave a melting point of 294 to 297 °C. Next, `COc1ccc(-c2nc(Nc3ccccc3)sc2-c2ccncc2)cc1` [Reference Example 23-80, N-phenyl-[4-(4-methoxyphenyl)-5-(4-pyridyl)-1,3-thiazol-2-yl]amine]: 287 to 289 °C; `COc1ccc(-c2nc(NC(=O)c3cccnc3)sc2-c2ccncc2)cc1` [Reference Example 23-101, N-[4-(4-methoxyphenyl)-5-(4-pyridyl)-1,3-thiazol-2-yl]nicotinamide]: 278 to 281 °C. In turn, `COc1ccc(-c2nc(NC(=O)c3ccncc3)sc2-c2ccncc2)cc1` [Reference Example 23-102, N-[4-(4-methoxyphenyl)-5-(4-pyridyl)-1,3-thiazol-2-yl]isonicotinamide] yielded a melting point of 295 to 297 °C. Next, `Cc1ccc(-c2nc(N)sc2-c2ccncc2)cc1C` [Reference Example 23-125, [4-(3,4-dimethylphenyl)-5-(4-pyridyl)-1,3-thiazol-2-yl]amine]: 248 to 250 °C; `CCNC(=O)Nc1nc(-c2ccc(OC)cc2)c(-c2ccncc2)s1` [Reference Example 23-156, N-ethyl-N′-[4-(4-methoxyphenyl)-5-(4-pyridyl)-1,3-thiazol-2-yl]urea]: 224 to 226 °C; `Cc1cc(C)cc(-c2nc(NC(=O)c3ccncc3)sc2-c2ccncc2)c1` [Reference Example 23-200, N-[4-(3,5-dimethylphenyl)-5-(4-pyridyl)-1,3-thiazol-2-yl]isonicotinamide]: 302 to 304 °C. For `CCNc1nc(-c2ccc(OC)cc2)c(-c2ccncc2)s1` [Reference Example 23-269, N-ethyl-[4-(4-methoxyphenyl)-5-(4-pyridyl)-1,3-thiazol-2-yl]amine] the value was 175 to 176 °C.

`CCCNc1nc(-c2cc(C)cc(C)c2)c(-c2ccncc2)s1` [Reference Example 23-276, N-propyl-[4-(3,5-dimethylphenyl)-5-(4-pyridyl)-1,3-thiazol-2-yl]amine]: the melting point was 177 to 180 °C. Next, `CCCCNc1nc(-c2cc(C)cc(C)c2)c(-c2ccncc2)s1` [Reference Example 23-280, N-butyl-[4-(3,5-dimethylphenyl)-5-(4-pyridyl)-1,3-thiazol-2-yl]amine]: 165 to 168 °C; `Cc1cc(C)cc(-c2nc(NCc3ccccc3)sc2-c2ccncc2)c1` [Reference Example 23-281, N-benzyl-[4-(3,5-dimethylphenyl)-5-(4-pyridyl)-1,3-thiazol-2-yl]amine]: 186 to 188 °C. Next, `CCCNc1nc(-c2ccc(OC)cc2)c(-c2ccncc2)s1` [Reference Example 23-290, N-propyl-[4-(4-methoxyphenyl)-5-(4-pyridyl)-1,3-thiazol-2-yl]amine]: 141 to 142 °C; `COc1ccc(-c2nc(NC(C)C)sc2-c2ccncc2)cc1` [Reference Example 23-291, N-isopropyl-[4-(4-methoxyphenyl)-5-(4-pyridyl)-1,3-thiazol-2-yl]amine]: 161 to 163 °C; `COc1ccc(-c2nc(NC(=O)Nc3ccccc3)sc2-c2ccncc2)cc1` [Reference Example 23-296, N-[4-(4-methoxyphenyl)-5-(4-pyridyl)-1,3-thiazol-2-yl]-N′-phenylurea]: 217 to 219 °C. `COc1ccc(-c2nc(NC(=O)c3ccc(C(=O)O)cc3)sc2-c2ccncc2)cc1` [Reference Example 23-299, 4-[[[4-(4-methoxyphenyl)-5-(4-pyridyl)-1,3-thiazol-2-yl]amino]carbonyl]benzoic acid] yielded a melting point of 332 to 335 °C.
